# Laboratory results reported in patent publication US20260103474A1, “NOVEL COMPOUNDS FOR THE DIAGNOSIS OF TDP-43 PROTEINOPATHIES” (AC IMMUNE SA, priority 2022, published 2026).
# Legend:
# [1] = tested on: Abeta and Tau aggregates in AD tissue; assay: Classical autoradiography on Abeta- and Tau-rich AD brain tissue sections; format: binding, human; conditions: tritiated compound 10 nM; alone or in self-competition
# Procedure: All tissues were collected from donors for or from whom a written informed consent for a brain autopsy and the use of the material and clinical information for research purposes had been obtained by the respective brain banks. All samples were anonymized and coded. Frozen brain tissue blocks with confirmed Abeta and Tau pathology upon autopsy were processed using a cryotome to generate sections of 10 μm in thickness and mounted on glass slides. Sections were kept at −80° C. until use.
# Brain sections were fixed for 15 minutes at 4° C. with 4% formaldehyde on ice and washed three times for eight minutes with 1×PBS at RT. Sections were blocked in assay buffer for 30 minutes (50 mM Tris-HCl, 0.9% NaCl+0.1% BSA). Cold test compound (Compound 1) was diluted in assay buffer to 4 μM and applied on half of the sections for 40 minutes at RT to determine non-specific binding. The remaining half of the sections were only incubated with assay buffer (total binding). […]
# Sections were subsequently dried under a stream of air and mounted with a copper-based adhesive strip. Bound radioactivity was quantified by exposing the slides in a real-time autoradiography system (Beaquant™ AI4R) for 2 hours with measurement settings configured for tritium. Beavacq software (AI4R) was used to acquire the image which was subsequently quantified using Beamage image analysis software (AI4R).
# [2] = tested on: Tau tangles; assay: High resolution micro-autoradiography on AD brain sections; format: binding, human; conditions: tritiated compound 20 nM
# Procedure: The protocol was adapted from Marquie et al., 2015. AD sections were incubated with [^3H]-Compound 1, [^3H]-Compound 17 or [^3H]-Tau reference compound at 20 nM for one hour at room temperature (RT). Sections were then washed as follows: One time in ice-cold 50 mM Tris-HCl pH 7.4 buffer for one minute, two times in 70% ice-cold ethanol for one minute, one time in ice-cold 50 mM Tris-HCl pH 7.4 buffer for one minute and finally rinsed briefly in ice-cold distilled water. Sections were subsequently dried and then exposed to Ilford Nuclear Emulsion Type K5 (Agar Scientific, AGP9281) in a light-proof slide storage box. After five days, the sections were developed by immersing them successively in the following solutions: 1.) Ilford Phenisol Developer (1:5 dilution in H2O, Agar Scientific, AGP9106), 2.) Ilfostop solution (1:20 dilution in H2O, Agar Scientific, AGP9104), 3.) Ilford Hypam Fixer (1:5 dilution in H2O, Agar Scientific, AGP9183) and finally rinsed with H2O.
# Thioflavin S staining was performed on adjacent sections. For image acquisition, sections were mounted using ProLong Gold Antifade reagent (Invitrogen P36930) and imaged on a Panoramic150 Slide Scanner (3DHistech) with a 20× objective capturing separately brightfield and fluorescent images.
# [3] = target: T1, PD brain-derived a-synuclein aggregates (Homo sapiens, UniProt P37840); assay: Micro-radiobinding direct binding on PD brain-derived a-synuclein aggregates; conditions: tritiated compound 0.6 to 200 nM
# T1 construct: from tissue; host or cells: frozen brain tissue of PD donors, 1% sarkosyl-insoluble pellet
# Procedure: The procedure was adapted from the protocol described in Spillantini et al., 1998. Frozen tissue blocks from PD donors were thawed on ice and homogenized using a glass dounce homogenizer. The homogenate was then centrifuged at 11,000×g (12,700 RPM) in an ultracentrifuge (Beckman, XL100K) for 20 minutes at 4° C. using a pre-cooled 70.1 rotor (Beckman, 342184). Pellets were resuspended in extraction buffer [10 mM Tris-HCl pH 7.4, 10% sucrose, […], 1% protease inhibitor (Calbiochem 539131), 1 mM EGTA, 1% phosphatase inhibitor (Sigma P5726 and P0044)] and centrifuged at 15,000×g (14,800 RPM, a 70.1 Ti rotor) for 20 minutes at 4° C. […]
# PD brain-derived a-synuclein aggregates and AD brain-derived Tau PHF aggregates were spotted onto microarray slides. […] Quantification of signal was performed by using the image analysis software Beamage (ai4R). Non-specific signal was determined with an excess of non-radiolabelled compound (2 μM) and specific binding was calculated by subtracting the non-specific signal from the total signal. Competition was calculated as percentage, where 0% was defined as the specific binding in the presence of vehicle and 100% as the values obtained in the presence of excess of the non-radiolabelled a-syn reference compound. Ki values were calculated in GraphPad Prism7 by applying a nonlinear regression curve fit using a one site, specific binding model. […]
SMILES,Classical autoradiography signal on AD tissue with abundant Abeta and Tau pathology [1],Micro-autoradiography silver grain accumulation on Tau tangles in AD brain sections [2],Direct binding in PD brain-derived a-synuclein aggregates [3]
"O=C1c2sc(-c3ccc(N4CC[C@@H](F)C4)nc3F)nc2CCN1c1cccnc1 [Compound 1, 2-[2-fluoro-6-[(3R)-3-fluoropyrrolidin-1-yl]-3-pyridyl]-5-(3-pyridyl)-6,7-dihydrothiazolo[5,4-c]pyridin-4-one]",no signal on the tissue,,
"O=C1c2sc(-c3ccc(N4CCC(CO)CC4)nc3F)nc2CCN1c1cccnc1 [Compound 17, 2-(2-fluoro-6-(4-(hydroxymethyl)piperidin-1-yl)pyridin-3-yl)-5-(pyridin-3-yl)-6,7-dihydrothiazolo[5,4-c]pyridin-4(5H)-one]",no signal on the tissue,,
"[3H]C([3H])(O)C1CCN(c2ccc(-c3nc4c(s3)C(=O)N(c3cccnc3)CC4)c(F)n2)CC1 [[^3H]-Compound 17, 2-(2-fluoro-6-(4-(hydroxymethyl-t2)piperidin-1-yl)pyridin-3-yl)-5-(pyridin-3-yl)-6,7-dihydrothiazolo[5,4-c]pyridin-4(5H)-one]",,No accumulation of silver grains on Tau tangles,No significant binding
"[3H]c1cncc(N2CCc3nc(-c4cc([3H])c(N5CC[C@@H](F)C5)nc4F)sc3C2=O)c1 [[^3H]-Compound 1, tritiated 2-[2-fluoro-6-[(3R)-3-fluoropyrrolidin-1-yl]-3-pyridyl]-5-(3-pyridyl)-6,7-dihydrothiazolo[5,4-c]pyridin-4-one]",,No accumulation of silver grains on Tau tangles,No significant binding
